The target of test [1] is T1, recombinant human 5-LOX (Homo sapiens, UniProt P09917).
T1 sequence (P09917 1-674): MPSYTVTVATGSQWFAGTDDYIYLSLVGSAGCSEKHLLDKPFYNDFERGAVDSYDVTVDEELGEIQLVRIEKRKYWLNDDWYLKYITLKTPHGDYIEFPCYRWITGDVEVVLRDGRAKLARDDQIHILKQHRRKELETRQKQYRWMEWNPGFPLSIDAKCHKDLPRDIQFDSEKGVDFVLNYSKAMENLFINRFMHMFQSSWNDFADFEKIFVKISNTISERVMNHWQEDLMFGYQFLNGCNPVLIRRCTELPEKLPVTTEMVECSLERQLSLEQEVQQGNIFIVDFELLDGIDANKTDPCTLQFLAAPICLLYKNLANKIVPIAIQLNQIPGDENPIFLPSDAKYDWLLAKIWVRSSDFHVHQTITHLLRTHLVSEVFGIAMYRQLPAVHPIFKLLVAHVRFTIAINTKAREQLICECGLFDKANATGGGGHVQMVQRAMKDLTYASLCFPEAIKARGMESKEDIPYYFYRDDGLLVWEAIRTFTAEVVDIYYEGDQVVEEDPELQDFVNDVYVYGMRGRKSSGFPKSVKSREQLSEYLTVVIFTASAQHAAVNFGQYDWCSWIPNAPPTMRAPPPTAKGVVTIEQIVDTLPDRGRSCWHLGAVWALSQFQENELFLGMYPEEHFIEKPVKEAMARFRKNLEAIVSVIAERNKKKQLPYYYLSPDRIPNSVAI
Briefly: Fluorescence Intensity 5-LOX Enzyme Assay. In kind it is biochemical. To be noted: crude lysate of recombinant human 5-LOX; highest inhibitor concentration tested typically 25 μM. The source says:
Bio Data Assays for Allergic and Non Allergic Airways Diseases Fluorescence Intensity 5-LOX Enzyme Assay
The enzyme assay is based on the oxidation of the non-fluorescent compound 2′7′-dichlorodihydrofluorescein diacetate (H2DCFDA) to the fluorescent 2′,7′-dichlorofluorescein by 5-LOX in an arachidonic acid-dependent reaction. Ester cleavage of the acetate groups of the substrate H2DCFDA must occur prior to oxidation. This is achieved through use of a crude cell lysate preparation of recombinant human 5-LOX. The enzyme assay ([…]) contained 50 mM Tris (pH 7.5), 2 mM CaCl2, 2 mM EDTA, 3 μM arachidonic acid (Nu-Chek Prep; #S-1133), 10 μM ATP, 10 μM H2DCFDA (Invitrogen; #D399), inhibitor (varying concentration) and recombinant human 5-LOX enzyme (1.25 μL crude lysate per well).
Inhibitors (dissolved in DMSO) were plated into a 384-well assay plate (Corning #3654) at 1 μL followed by a 20 μL addition of a solution containing 5-LO enzyme and H2DCFDA. Enzyme and H2DCFDA were pre-incubated for 5 min to allow time for acetate group cleavage of the dye prior to addition to the assay plate. After a 10 min pre-incubation of inhibitor and enzyme/dye mix, the assay was initiated by the addition of a substrate solution containing arachidonic acid and ATP. The enzymatic reaction was run for 20 min at room temperature and terminated by the addition of 40 μL of acetonitrile. Assay plates were read in a plate reader using standard wavelengths for fluorescein. IC50s of inhibitors were calculated using a 4-parameter fit using 7 inhibitor concentrations in duplicate with 3-fold serial dilutions. Controls on each plate included no inhibitor (zero percent effect) and 25 μM C J-13610 (one hundred percent effect). The highest inhibitor concentration tested was typically 25 μM. The final DMSO concentration in the assay was 2.5%.

Test [2] relates to human whole blood (leukotriene and prostaglandin levels). Nature of the test: Eicosanoid production from human whole blood. In kind it is cell-based. The conditions noted are these: human whole blood stimulated with calcium ionophore A23187 and arachidonic acid; ELISA. Here is the method:
Human whole blood is collected in 10 ml heparin tubes (Vacutainer, Becton Dickenson). Collected blood is pooled and 80 μL is dispensed into each well of 384 well polypropylene plates. A PlateMate is used to add 2 μL of compound solution in DMSO to the 80 μL of blood in the polypropylene plates. The plate, with blood and compound added, is incubated at room temperature for 10 minutes. 2 μL of a calcimycin (800 ng/ml) (A23187 C-7522, Sigma) and arachidonic acid (30 μM) (NU-Chek PREP, INC. S-1133) solution in 60% ethanol is then added to the blood using a Micromultidrop. The plates are then incubated at 37° C. in a shallow water bath for 15 minutes. Plates are then spun at 800 g for 10 minutes at 4° C. Supernatant is removed and assayed by Elisa (Caymen Chemical).
Eicosanoid Production from Human Whole Blood:
Human whole blood was collected from healthy or asthmatic human donors in 10 ml heparinized tubes (Vacutainer tubes; Becton Dickenson, Franklin Lakes, N.J.). Collected blood was pooled and 80 μL was dispensed into each well of 384 well polypropylene plates using a Multi-prop™ 384-well dispenser (Titertek, Huntsville, Ala.). Varying concentrations of compounds were dissolved in DMSO then 2 μL/well was added to the blood using a PlateMate Plus™ automated pipetting station (Matrix Technologies, Hudson, N.H.). The compounds were preincubated with the blood at room temperature for 10 minutes followed by stimulation with 40 μM calcium ionophore (A23187, Sigma Chemical Co, St. Louis, Mo., Cat. # C-7522) and 30 μM arachidonic acid (S-1133, NU-Chek PREP, Inc., Elysian, MN, Cat. # S-1133) dissolved in 60% ethanol. After 15 min incubation at 37° C. in a shallow water bath, the blood was centrifuged at 8009 for 10 minutes at 4° C., the supernatants collected, and leukotriene and prostaglandin levels measured by ELISA according to the manufacturer's directions (Cayman Chemical Company, Ann Arbor, Mich.). The assay was performed at a final concentration of 2.5% DMSO.
(In an ELISA, binding on a coated surface is turned into a signal by an enzyme label.)

Each structure is given as a SMILES string. Bounds are passed on as bounds.

Broadly, the IC50 is the concentration that inhibits the measured activity by half. Take `Cn1nccc1-c1ccc(Sc2cccc(C3(C(N)=O)CCOCC3)c2F)cc1` [17(7), 4-(2-fluoro-3-{[4-(1-methyl-1H-pyrazol-5-yl)phenyl]thio}-phenyl)tetrahydro-2H-pyran-4-carboxamide]: the values for the half-inhibitory concentration (IC50) in test [1] and in test [2] were 126 nM and 256 nM, respectively. As to `Cn1nccc1-c1ccc(Sc2cc(F)cc(C3(C(N)=O)CCOCC3)c2F)cc1` [19(10), 4-(2,5-difluoro-3-{[4-(1-methyl-1H-pyrazol-5-yl)phenyl]-thio}phenyl)tetrahydro-2H-pyran-4-carboxamide], the IC50 came to 50.5 nM in test [1] and 480 nM in test [2]. Consider `C[C@H]1C[C@@](C#N)(c2ccc(F)c(Sc3ccc(-c4ccnn4C)cc3)c2F)CCO1` [28(2), (2S,4R)-4-(2,4-difluoro-3-(4-(1-methyl-1H-pyrazol-5-yl)phenylthio)phenyl)-2-methyl-tetrahydro-2H-pyran-4-carbonitrile], for which the IC50 worked out at 38.9 nM in test [1] and 42.2 nM in test [2]. Turning to `NC(=O)C1(c2cccc(Sc3ccc(-c4ccnn4C4CCCC4)cc3)c2)CCOCC1` [Example 3, 4-(3-{[4-(1-cyclopentyl-1H-pyrazol-5-yl)phenyl]thio}phenyl)tetrahydro-2H-pyran-4-carboxamide], the IC50 in test [1] was found to be 102 nM; in test [2], 179 nM. For `NC(=O)C1(c2cccc(Sc3ccc(-c4ccnn4C4CCCCCC4)cc3)c2)CCOCC1` [Example 4, 4-(3-{[4-(1-cycloheptyl-1H-pyrazol-5-yl)phenyl]thio}phenyl)tetrahydro-2H-pyran-4-carboxamide] the same measures were 12.5 nM and 260 nM. For the compound `NC(=O)C1(c2cccc(Sc3ccc(-c4ccnn4C4CCCCC4)cc3)c2)CCOCC1` [Example 5, 4-(3-{[4-(1-cyclohexyl-1H-pyrazol-5-yl)phenyl]thio}phenyl)tetrahydro-2H-pyran-4-carboxamide], the IC50 in test [1] is 15.9 nM; in test [2], 410 nM.

For the compound `NC(=O)C1(c2cccc(Sc3ccc(-c4ccnn4CC4CC4)cc3)c2)CCOCC1` [Example 6, 4-[3-({4-[1-(cyclopropylmethyl)-1H-pyrazol-5-yl]phenyl}thio)phenyl]tetrahydro-2H-pyran-4-carboxamide], the IC50 in test [1] is 86.1 nM; in test [2] it was 225 nM. As for `NC(=O)C1(c2cccc(Sc3ccc(-c4ccnn4CC4CCCC4)cc3)c2)CCOCC1` [Example 7, 4-[3-({4-[1-(cyclopentylmethyl)-1H-pyrazol-5-yl]phenyl}thio)phenyl]tetrahydro-2H-pyran-4-carboxamide], the figures for the IC50 in test [1] and in test [2] were 38.6 nM and 78.5 nM, respectively. For `CCn1nccc1-c1ccc(Sc2cccc(C3(C(N)=O)CCOCC3)c2)cc1` [Example 8, 4-(3-{[4-(1-ethyl-1H-pyrazol-5-yl)phenyl]thio}phenyl)tetrahydro-2H-pyran-4-carboxamide] the same measures were 14 nM and 253 nM.

Consider `CC(C)n1nccc1-c1ccc(Sc2cccc(C3(C(N)=O)CCOCC3)c2)cc1` [Example 9], for which the IC50 was 14.8 nM in test [1] and 208 nM in test [2].

As for `Cn1nccc1C(=O)c1ccc([S+]([O-])c2cccc(C3(C(N)=O)CCOCC3)c2)cc1` (stereo not shown) [Example 66, 4-[3-({4-[(1-methyl-1H-pyrazol-5-yl)carbonyl]phenyl}sulfinyl)phenyl]tetrahydro-2H-pyran-4-carboxamide], in test [1], the IC50 is at least 25000 nM. Regarding `C[C@H]1C[C@](C#N)(c2ccc(F)c(Sc3ccc(-c4ccnn4C)cc3)c2)CCO1` [Example 74, (2S,4S)-4-(4-fluoro-3-{[4-(1-methyl-1H-pyrazol-5-yl)phenyl]thio}phenyl)-2-methyltetrahydro-2H-pyran-4-carbonitrile], the IC50 in test [1] is at least 25000 nM.

Turning to `C[C@@H]1C[C@](C(N)=O)(c2ccc(F)c(Sc3ccc(-c4ccnn4C)cc3)c2)CCO1` [Example 75, (2R,4S)-4-(4-fluoro-3-{[4-(1-methyl-1H-pyrazol-5-yl)phenyl]thio}phenyl)-2-methyltetrahydro-2H-pyran-4-carboxamide], in test [1], the IC50 is 12200 nM. `C[C@H]1C[C@](C(N)=O)(c2ccc(F)c(Sc3ccc(-c4ccnn4C)cc3)c2)CCO1` [Example 77, (2S,4S)-4-(4-fluoro-3-{[4-(1-methyl-1H-pyrazol-5-yl)phenyl]thio}phenyl)-2-methyltetrahydro-2H-pyran-4-carboxamide]: in test [1], the IC50 came to 6380 nM.

As for `C[C@H]1C[C@](C(N)=O)(c2cccc(Sc3ccc(-c4ccnn4C)cc3)c2F)CCO1` [Example 79, (2S,4S)-4-(2-fluoro-3-{[4-(1-methyl-1H-pyrazol-5-yl)phenyl]thio}phenyl)-2-methyltetrahydro-2H-pyran-4-carboxamide], the IC50 in test [1] was 3310 nM.

In the case of `Cn1nccc1-c1ccc(Sc2cccc(C3(C(N)=O)CCOC(C)(C)C3)c2)cc1` (stereo not shown) [Example 80, 2,2-dimethyl-4-(3-{[4-(1-methyl-1H-pyrazol-5-yl)phenyl]thio}phenyl)tetrahydro-2H-pyran-4-carboxamide], the IC50 in test [1] came out at 3540 nM. For `C[C@H]1C[C@](C(N)=O)(c2cccc(Sc3ccc(-c4ccnn4C)cc3)c2)CCO1` [Example 81, (2S,4S)-2-methyl-4-(3-{[4-(1-methyl-1H-pyrazol-5-yl)phenyl]thio}phenyl)tetrahydro-2H-pyran-4-carboxamide], the IC50 in test [1] was found to be 7560 nM. In the case of `C[C@@H]1C[C@@](C#N)(c2cccc(Sc3ccc(-c4ccnn4C)cc3)c2)CCO1` [Example 83, (2R,4R)-2-methyl-4-(3-{[4-(1-methyl-1H-pyrazol-5-yl)phenyl]thio}phenyl)tetrahydro-2H-pyran-4-carbonitrile], the IC50 in test [1] was 10300 nM. In the case of `C[C@H]1C[C@](C#N)(c2cccc(Sc3ccc(-c4ccnn4C)cc3)c2)CCO1` [Example 84, (2S,4S)-2-methyl-4-(3-{[4-(1-methyl-1H-pyrazol-5-yl)phenyl]thio}phenyl)tetrahydro-2H-pyran-4-carbonitrile], the 50% inhibitory concentration (IC50) in test [1] worked out at 2230 nM.

As for `Cn1nccc1C(=O)c1ccc(Sc2cccc(C3(C(N)=O)CCOCC3)c2)c(C#N)c1` [Example 85, 4-[3-({2-cyano-4-[(1-methyl-1H-pyrazol-5-yl)carbonyl]phenyl}thio)phenyl]tetrahydro-2H-pyran-4-carboxamide], in test [1], the IC50 was determined as 2750 nM. For the compound `Cn1nccc1-c1ccc([S+]([O-])c2cccc(C3(C(N)=O)CCOCC3)c2)cc1Cl` (stereo not shown) [Example 89, 4-(3-{[3-chloro-4-(1-methyl-1H-pyrazol-5-yl)phenyl]sulfinyl}phenyl)tetrahydro-2H-pyran-4-carboxamide], the IC50 in test [1] was at least 25000 nM.

The values above are taken from US8097733B2, “Pyrazole derivatives as 5-LO-inhibitors” (Pfizer Inc., priority 2007, dated 2012).
